Laboratory results published in patent US4431742A, “Radioreceptor assay for benzodiazepines in saliva” (The United States of America as represented by the …, priority 1981, dated 1984).

Tests used:
[1] = test system: diazepam receptor (fresh rat frontal cortex); assay: radioreceptor assay: inhibition of ^3 H-diazepam binding (selectivity, drugs incubated with saliva); conditions: 10^-5 M, ^3 H-diazepam 0.50 nM
[2] = test system: benzodiazepine receptor (fresh rat frontal cortex); assay: recovery of benzodiazepines pre-incubated with saliva, measured by benzodiazepine radioreceptor assay; assay type: binding; conditions: 100 nM diazepam pre-incubated with control saliva

SMILES | inhibition of ^3 H-diazepam binding compared with saliva itself [1] | maximum percentage lowering of binding vs drug added directly with no saliva present [2]
CN(C)CCCN1c2ccccc2Sc2ccc(Cl)cc21 [chlorpromazine] | failed to inhibit ^3 H-diazepam binding more than saliva itself | 
CNCCCN1c2ccccc2CCc2ccccc21 [desmethylimipramine] | failed to inhibit ^3 H-diazepam binding more than saliva itself | 
CN1C(=O)CN=C(c2ccccc2)c2cc(Cl)ccc21 [diazepam] |  | equivalent
C=CCN1CC[C@]23CCCC[C@H]2[C@H]1Cc1ccc(O)cc13 [levallorphan] | failed to inhibit ^3 H-diazepam binding more than saliva itself | 
C#CCN(C)Cc1ccccc1 [pargyline] | failed to inhibit ^3 H-diazepam binding more than saliva itself | 
O=c1[nH]c2ccccc2n1C1CCN(CCCC(c2ccc(F)cc2)c2ccc(F)cc2)CC1 [pimozide] | failed to inhibit ^3 H-diazepam binding more than saliva itself | 
